The results in this text go back to US12077508B2, “Inhibitors of the Notch transcriptional activation complex kinase (“NACK”) and methods for use of the same” (UNIVERSITY OF MIAMI, priority 2018, dated 2024).

Entries after “also recorded” stand apart in the source; their conditions may differ.

For assay [1], the target named is LCK (Homo sapiens, UniProt P06239). Nature of the assay: ADP-Glo LCK kinase assay. In kind it is biochemical. To be noted: FIG. 17B. The method, then:
(§1) ADP-Glo kinase assay was performed using ADP-Glo™ Kinase Assay (Promega, V6930) according to the manufacture recommended protocol.
A general note: In ADP-Glo the light output rises with the ADP produced.

Assay [2] addresses TNIK (Homo sapiens, UniProt Q9UKE5). The experiment in a line: ADP-Glo TNIK kinase assay. To be noted: FIG. 17C. In kind it is biochemical. As for the experimental part: as §1
Assay [3] deals with HC11/N1ICD spheres. The experiment in a line: Tumor sphere formation assay in HC11/N1ICD. It is filed as cell-based, mouse. The source says:
To further explore the effect of NACK inhibitors targeting Notch pathway, ectopic expression of Notch in HC11 mammary epithelial cells was constructed, as HC11 cells have little to no endogenous Notch activity. Moreover, HC11 cells are insensitive to either DAPT or Z271-0326 treatment as shown in previous colony formation assay (FIG. 5B). See Weaver et al., Cancer Research 74, 4741-4751 (2014). […] Therefore, transformation of HC11 cells by Notch now renders these cells dependent on Notch activity and sensitive to inhibition of NACK by Z271-0326.
(§2) In order to assess the effect of hit to lead compounds on the proliferation of stem cell like population of Notch/NACK dependent cells, the primary tumor spheres were treated with NACK inhibitor and allow the cells to be propagated as secondary cultures. To obtain tumor spheres, cells were cultured in DMEM/F12 with 2% B-27 serum-free supplement (17604-044; Invitrogen), 20 ng/mL epidermal growth factor (EGF; PHG0311L; Invitrogen), and 20 ng/mL basic fibroblastic growth factor (bFGF; PHG0266; Invitrogen) for 14 days. Resulting tumor spheres were examined and counted under the microscope. Furthermore, the tumor spheres were collected for further RT-qPCR analysis to test the effect of hit to lead compounds on the stem like target genes.

Assay [4] has as its system HC11 cells. Nature of the assay: Colony formation assay in HC11 cells. The conditions noted are these: Notch/NACK independent cell line; FIG. 5B. It is filed as cell-based, mouse. As for the experimental part:
A cell based colony formation assay was used in these experiments. Normal mouse mammary epithelia HC11 cells have little or no endogenous NACK expression, and NACK knockdown had no effect on the growth of HC11 cells (FIG. 5A, lower panel). […] Knockdown of NACK was confirmed by western blot and qPCR (FIGS. 1D and 1E). […] Therefore, compounds that affect OE33 colony formation but not HC11 were desired. In order to screen the compounds, cells were treated with test compounds every other day.
Colony formation assay was utilized to determine the effect of small molecule inhibitors on cell proliferation. In general, different cell lines (NACK dependent or independent) will be seeded in 6-well plates at a density of 2000 cells per well and allowed to attach overnight. Inhibitor treatment commenced 24 hours post seeding, and the media containing inhibitor was changed every 48 hours thereafter. After 168 hours, colonies were be stained with Crystal Violet (Millipore) and counted.

Assay [5] deals with OE33 spheres. The experiment in a line: Tumor sphere formation assay in OE33. In kind it is cell-based, human. As for the experimental part: as §2
Assay [6] has as its system NACK binding to the Notch transcription complex. The experiment in a line: CSL-DNA affinity precipitation (CSL-DAP) assay. In kind it is cell-based, mouse. The conditions noted are these: Y999F NACK and Q1024E NACK mutants (mouse NACK); FIG. 10D. As for the experimental part: To determine the specificity of hit-to-lead compounds targeting NACK activity, it was evaluated whether iNACK can block NACK binding to the Notch complex by conducting CSL-DNA affinity precipitation (CSL-DAP) assay. […] In the CSL-DAP assay, 293T cells were co-transfected with N1^ICD, Maml1 and NACK. Transfections were performed using LipoJet transfection reagent (SL100468, SignaGen Laboratories) according to the manufacturer recommended protocol. After two days of transfection, cells were treated with compounds for 2 hours prior collecting the cell lysate. Cell lysates were incubated with DNA streptavidin beads. Proteins that bound to the beads were analyzed by Western blot.
Western blot was performed as described previously (See Weaver et al., Cancer Research 74, 4741-4751 (2014)). Primary antibodies were α-NACK (1:1,000; against aa209-287 of NACK and affinity purified), α-CSL (1:1,000; generated against full-length CSL and affinity purified), α-Maml1 (1:5,000; Cell Signaling Technology), α-cleaved-Notch1 (1:1,000; Cell Signaling Technology).

Sequence of TNIK (Q9UKE5 whole entry, species assumed): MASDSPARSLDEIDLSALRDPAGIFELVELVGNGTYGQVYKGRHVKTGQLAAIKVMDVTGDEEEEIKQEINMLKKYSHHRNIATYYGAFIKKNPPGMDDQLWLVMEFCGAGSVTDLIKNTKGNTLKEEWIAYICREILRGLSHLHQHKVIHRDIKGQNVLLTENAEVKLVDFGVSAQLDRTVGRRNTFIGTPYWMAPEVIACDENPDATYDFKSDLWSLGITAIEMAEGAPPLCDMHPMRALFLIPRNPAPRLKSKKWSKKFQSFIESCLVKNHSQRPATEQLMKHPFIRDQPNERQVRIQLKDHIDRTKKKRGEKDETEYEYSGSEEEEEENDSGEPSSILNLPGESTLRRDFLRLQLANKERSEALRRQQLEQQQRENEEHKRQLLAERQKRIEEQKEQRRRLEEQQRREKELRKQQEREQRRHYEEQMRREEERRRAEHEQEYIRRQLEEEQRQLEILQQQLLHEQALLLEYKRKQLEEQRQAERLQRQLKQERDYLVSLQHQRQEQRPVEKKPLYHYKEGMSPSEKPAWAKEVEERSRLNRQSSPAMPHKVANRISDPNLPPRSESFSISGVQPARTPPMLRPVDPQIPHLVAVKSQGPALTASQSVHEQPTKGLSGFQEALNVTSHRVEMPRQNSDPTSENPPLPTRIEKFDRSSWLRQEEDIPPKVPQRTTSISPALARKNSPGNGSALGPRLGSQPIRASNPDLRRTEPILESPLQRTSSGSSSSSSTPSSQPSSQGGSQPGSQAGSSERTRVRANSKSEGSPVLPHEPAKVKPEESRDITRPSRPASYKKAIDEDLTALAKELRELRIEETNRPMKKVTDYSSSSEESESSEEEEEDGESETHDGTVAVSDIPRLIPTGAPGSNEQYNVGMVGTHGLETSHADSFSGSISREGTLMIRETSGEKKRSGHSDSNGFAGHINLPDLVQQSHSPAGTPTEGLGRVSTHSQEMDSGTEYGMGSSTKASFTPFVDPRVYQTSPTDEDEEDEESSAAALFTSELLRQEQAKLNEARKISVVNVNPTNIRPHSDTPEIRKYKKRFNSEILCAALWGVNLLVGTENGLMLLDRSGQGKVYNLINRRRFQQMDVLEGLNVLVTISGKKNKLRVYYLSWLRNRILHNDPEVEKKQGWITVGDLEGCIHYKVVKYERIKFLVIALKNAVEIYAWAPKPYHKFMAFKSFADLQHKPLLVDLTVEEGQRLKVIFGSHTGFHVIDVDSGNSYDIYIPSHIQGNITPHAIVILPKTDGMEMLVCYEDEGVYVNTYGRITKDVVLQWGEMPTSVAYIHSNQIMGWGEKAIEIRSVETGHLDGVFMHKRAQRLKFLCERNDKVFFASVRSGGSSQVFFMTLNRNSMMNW
Sequence of LCK (P06239 whole entry, species assumed): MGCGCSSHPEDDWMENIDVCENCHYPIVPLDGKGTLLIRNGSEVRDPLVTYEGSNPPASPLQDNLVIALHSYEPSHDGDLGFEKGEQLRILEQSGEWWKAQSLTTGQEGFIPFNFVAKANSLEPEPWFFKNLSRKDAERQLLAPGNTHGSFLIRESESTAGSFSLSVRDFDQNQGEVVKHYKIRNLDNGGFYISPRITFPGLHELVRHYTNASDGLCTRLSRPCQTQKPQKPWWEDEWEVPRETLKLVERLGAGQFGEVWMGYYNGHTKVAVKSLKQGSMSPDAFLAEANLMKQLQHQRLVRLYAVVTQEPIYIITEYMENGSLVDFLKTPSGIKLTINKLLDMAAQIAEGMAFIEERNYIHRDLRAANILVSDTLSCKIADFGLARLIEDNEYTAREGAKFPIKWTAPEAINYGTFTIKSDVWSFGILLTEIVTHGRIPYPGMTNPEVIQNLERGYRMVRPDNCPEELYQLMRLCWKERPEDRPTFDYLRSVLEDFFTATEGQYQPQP

In the case of `CCN(CC)C(=O)c1cnn2ccc(C3CCN(S(=O)(=O)c4ccc(NC(C)=O)cc4)CC3)cc12` [Compound Z271-0326, 5-(1-((4-acetamidophenyl)sulfonyl)piperidin-4-yl)-N,N-diethylpyrazolo[1,5-a]pyridine-3-carboxamide], the LCK kinase inhibition entry in assay [1] is “meaningfully inhibits LCK”. In addition, the TNIK kinase inhibition entry in assay [2] is reported as “only meaningfully inhibits LCK out of the three kinases”. Further, the “HES1 and stem-cell marker gene expression (ALDH1A1, SNAIL1, TWIST1)” value in assay [3] (HC11/N1ICD spheres, FIG. 7D) was “causes a decrease in HES1 gene expression as well as several other stem-cell marker genes”. Also, the secondary sphere formation result in assay [3] (HC11/N1ICD, FIG. 7C) is on record as “inhibits the ability of HC11/N1ICD spheres to form secondary spheres”; in assay [5] (OE33, FIG. 7A), “decrease in the ability of cell spheres to form secondary spheres”. The “HC11 colony formation / viability” value in assay [4] was “but not HC11 cell; also recorded: insensitive”. Moreover, in assay [5] (OE33 spheres, FIG. 7B), the “Notch target genes transcription in spheres” value was “affected Notch target genes HES1, MYC, CCND1 and NACK transcription”. The “recruitment of NACK to the Notch complex” value in assay [6] was “insensitive to inhibition”.
